Read-outs that look alike come from different tables or passages of the source.
What was measured:
Assay type in all cases: cell-based
IKZF2 [1] = biological target: T1, IKZF2 (Homo sapiens, UniProt Q96SW2+Q9UKS7); experiment: HiBit-IKZF2 degradation assay in Molt4 cells
T1 construct: knocked into the endogenous IKZF2 or IKZF1 locus of Molt4 cells; endogenous in cells; host or cells: Molt4 (CRISPR/Cas9 HiBit knock-in)
Experimental: (§1) The HiBit tag was knocked into the endogenous IKZF2 or IKZF1 locus of Molt4 cells to generate a HiBit-IKZF2 or HiBit-IKZF1 fusion proteins via CRISPR/Cas9 gene editing. Cells were then treated with a 12 point concentration curve of the indicated compounds, and luminescence (corresponding to Helios abundance) was detected after 6 hours using the Nano-Glo® HiBit Lytic Detection system (Promega™). The concentration necessary to achieve 50% degradation (DC50) was calculated using Prism (GraphPad).

IKZF1 [2] = biological target: T2, IKZF1 (Homo sapiens, UniProt Q13422+Q96SW2); experiment: HiBit-IKZF1 degradation assay in Molt4 cells
T2 construct: knocked into the endogenous IKZF2 or IKZF1 locus of Molt4 cells; endogenous in cells; host or cells: Molt4 (CRISPR/Cas9 HiBit knock-in)
T2 sequence (Q13422 whole entry): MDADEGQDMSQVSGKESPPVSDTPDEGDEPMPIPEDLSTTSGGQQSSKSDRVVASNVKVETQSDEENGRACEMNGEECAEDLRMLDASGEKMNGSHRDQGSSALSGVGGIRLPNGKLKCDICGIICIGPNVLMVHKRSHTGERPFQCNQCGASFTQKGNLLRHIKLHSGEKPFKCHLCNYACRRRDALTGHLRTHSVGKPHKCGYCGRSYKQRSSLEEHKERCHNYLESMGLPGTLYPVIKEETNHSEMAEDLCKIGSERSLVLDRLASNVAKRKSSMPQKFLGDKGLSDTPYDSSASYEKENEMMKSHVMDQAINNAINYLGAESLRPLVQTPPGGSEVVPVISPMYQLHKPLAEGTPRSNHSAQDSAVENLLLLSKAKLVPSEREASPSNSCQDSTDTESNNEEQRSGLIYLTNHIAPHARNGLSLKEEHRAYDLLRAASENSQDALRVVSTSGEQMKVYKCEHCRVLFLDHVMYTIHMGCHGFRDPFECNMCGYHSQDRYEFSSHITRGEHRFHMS
T2 sequence (Q96SW2 whole entry): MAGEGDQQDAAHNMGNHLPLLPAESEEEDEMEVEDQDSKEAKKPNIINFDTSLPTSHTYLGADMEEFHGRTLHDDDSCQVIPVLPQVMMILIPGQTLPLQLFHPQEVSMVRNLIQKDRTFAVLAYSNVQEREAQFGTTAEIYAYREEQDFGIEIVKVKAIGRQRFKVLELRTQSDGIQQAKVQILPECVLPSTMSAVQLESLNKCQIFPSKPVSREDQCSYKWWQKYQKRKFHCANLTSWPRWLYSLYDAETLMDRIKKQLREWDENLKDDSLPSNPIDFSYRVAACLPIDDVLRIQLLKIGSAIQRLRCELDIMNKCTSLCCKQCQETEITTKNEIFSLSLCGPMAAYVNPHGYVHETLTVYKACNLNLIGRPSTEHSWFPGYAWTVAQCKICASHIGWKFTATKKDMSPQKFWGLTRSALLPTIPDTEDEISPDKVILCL
T2 sequence (Q16531 whole entry partner): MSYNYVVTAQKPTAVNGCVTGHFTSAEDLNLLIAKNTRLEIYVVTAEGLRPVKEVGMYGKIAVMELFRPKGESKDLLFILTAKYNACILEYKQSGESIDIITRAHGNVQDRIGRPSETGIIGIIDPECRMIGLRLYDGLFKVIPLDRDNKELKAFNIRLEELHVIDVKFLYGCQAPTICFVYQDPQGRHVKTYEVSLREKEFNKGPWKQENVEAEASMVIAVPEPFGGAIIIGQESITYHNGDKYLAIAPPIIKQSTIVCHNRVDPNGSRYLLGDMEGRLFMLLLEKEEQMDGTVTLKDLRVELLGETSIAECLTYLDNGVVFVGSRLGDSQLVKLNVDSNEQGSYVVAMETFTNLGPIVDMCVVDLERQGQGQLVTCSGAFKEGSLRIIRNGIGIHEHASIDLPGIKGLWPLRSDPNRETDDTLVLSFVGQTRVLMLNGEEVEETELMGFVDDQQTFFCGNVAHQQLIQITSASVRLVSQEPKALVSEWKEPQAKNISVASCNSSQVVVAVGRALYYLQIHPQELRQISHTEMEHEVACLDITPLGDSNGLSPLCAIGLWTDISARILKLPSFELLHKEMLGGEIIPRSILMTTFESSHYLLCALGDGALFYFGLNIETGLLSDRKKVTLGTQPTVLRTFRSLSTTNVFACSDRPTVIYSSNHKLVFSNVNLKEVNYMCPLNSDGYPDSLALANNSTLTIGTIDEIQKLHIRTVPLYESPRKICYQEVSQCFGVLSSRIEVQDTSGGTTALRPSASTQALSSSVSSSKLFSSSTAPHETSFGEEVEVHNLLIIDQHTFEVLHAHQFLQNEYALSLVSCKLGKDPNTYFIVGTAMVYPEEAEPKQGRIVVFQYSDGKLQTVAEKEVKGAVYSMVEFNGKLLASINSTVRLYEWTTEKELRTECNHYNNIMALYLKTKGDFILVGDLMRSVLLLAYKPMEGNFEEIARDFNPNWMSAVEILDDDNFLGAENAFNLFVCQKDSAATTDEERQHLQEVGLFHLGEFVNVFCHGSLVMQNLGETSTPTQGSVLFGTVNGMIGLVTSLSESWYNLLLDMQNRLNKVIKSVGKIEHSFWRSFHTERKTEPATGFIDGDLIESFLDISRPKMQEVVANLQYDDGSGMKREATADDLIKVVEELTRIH
Experimental: as §1

IKZF2 [3] = experiment: GFP-IKZF2 cellular degradation assay (eGFP fusion/mCherry reporter, Flip-In 293 cells); settings: Flip-In 293 cells stably expressing IKZF2 GFP fusion with mCherry reporter, 5 h
Experimental: IKZF1A and IKZF2A were subcloned into mammalian pcDNA5/FRT Vector (Ampicillin and Hygromycin B resistant) modified to contain MCS-eGFP-P2A-mCherry. Stable cell lines expressing eGFP-protein fusion and mCherry reporter were generated using Flip-In 293 system. Plasmid (0.3 μg) and pOG44 (4.7 μg) DNA were preincubated in 100 μL of Opti-MEM™ I (Gibco™, Life Technologies™) media containing 0.05 mg/mL Lipofectamine™ 2000 (Invitrogen™) for 20 min and added to Flip-In 293 cells containing 1.9 mL of DMEM media (Gibco™, Life Technologies™) per well in a 6-well plate format (Falcon, 353046). Cells were propagated for 48 h and were then transferred into a 10 cm^2 plate (Corning, 430165) in DMEM media containing 50 μg/mL of Hygromycin B (REF 10687010, Invitrogen™) as a selection marker. Following 2-3 passage cycle, FACS (FACSAria™ II, BD) was used to enrich for cells expressing eGFP and mCherry.
(§2) Cells stably expressing the IKZF1A, or IKZF2A GFP fusions with mCherry reporter were seeded at 30-50% confluency in 384-well plates with 50 μL FluoroBrite™ DMEM media (Thermo Fisher Scientific™ A18967) containing 10% FBS per well a day before compound treatment. Compound titrations were dispensed using a D300e Digital Dispenser (HP), normalized to 0.5% DMSO, and incubated with cells for 5 hours.
(§3) The assay plate was imaged immediately using an Acumen High Content Imager (TTP Labtech) with 488 nm and 561 nm lasers in […] per well format. The resulting images were analyzed using CellProfiler (Carpenter et al., Genome Biol. 2006, 7:R100). A series of image analysis steps (‘image analysis pipeline’) was constructed. First, the red and green channels were aligned and cropped to target the middle of each well (to avoid analysis of heavily clumped cells at the edges), and a background illumination function was calculated for both red and green channels of each well individually and subtracted to correct for illumination variations across the 384-well plate from various sources of error. An additional step was then applied to the green channel to suppress the analysis of large auto fluorescent artifacts and enhance the analysis of cell specific fluorescence by way of selecting for objects under a given size, 30 A.U., and with a given shape, speckles. mCherry-positive cells were then identified in the red channel filtering for objects between 8-60 pixels in diameter and using intensity to distinguish between clumped objects. The green channel was then segmented into GFP positive and negative areas and objects were labeled as GFP positive if at least 40% of it overlapped with a GFP positive area. The fraction of GFP-positive cells/mCherry-positive cells in each well was then calculated, and the green and red images were rescaled for visualization. The concentrations that lead to half degradation at 5 h (DC50, 5h) were calculated using the nonlinear fit variable slope model (GraphPad Software).

IKZF1 [4] = biological target: T3, IKZF1 (Homo sapiens, UniProt Q13422); experiment: GFP-IKZF1 cellular degradation assay (eGFP fusion/mCherry reporter, Flip-In 293 cells)
T3 construct: expressed in transfected cells
T3 sequence (Q13422 83-213 isoform Q13422-7 limits assumed): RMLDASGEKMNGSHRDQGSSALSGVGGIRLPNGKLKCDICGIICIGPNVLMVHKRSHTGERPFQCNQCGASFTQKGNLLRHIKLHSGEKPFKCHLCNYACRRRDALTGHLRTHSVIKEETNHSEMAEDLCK
T3 sequence (Q96SW2 whole entry partner, the tested form may be a part): as the sequence (Q96SW2 whole entry) above
T3 sequence (Q16531 whole entry partner, the tested form may be a part): as the sequence (Q16531 whole entry partner) above
Experimental: IKZF1A and IKZF2A were subcloned into mammalian pcDNA5/FRT Vector (Ampicillin and Hygromycin B resistant) modified to contain MCS-eGFP-P2A-mCherry. […] Following 2-3 passage cycle, FACS (FACSAria™ II, BD) was used to enrich for cells expressing eGFP and mCherry.
as §2
as §3, with “The resulting images were analyzed using CellProfiler (Carpenter et al., Genome Biol. 2006, 7:R100).” left out

Helios = biological target: T4, Helios (Homo sapiens, UniProt Q96SW2+Q9UKS7); experiment: Degradation in Jurkat cells (immunoblot); settings: 4 hours, indicated concentrations
T4 construct: Immunoblots for Ikaros, Helios, and Actin from wildtype Jurkat cells; endogenous in cells; host or cells: wild-type Jurkat cells
T4 sequence (Q9UKS7 whole entry): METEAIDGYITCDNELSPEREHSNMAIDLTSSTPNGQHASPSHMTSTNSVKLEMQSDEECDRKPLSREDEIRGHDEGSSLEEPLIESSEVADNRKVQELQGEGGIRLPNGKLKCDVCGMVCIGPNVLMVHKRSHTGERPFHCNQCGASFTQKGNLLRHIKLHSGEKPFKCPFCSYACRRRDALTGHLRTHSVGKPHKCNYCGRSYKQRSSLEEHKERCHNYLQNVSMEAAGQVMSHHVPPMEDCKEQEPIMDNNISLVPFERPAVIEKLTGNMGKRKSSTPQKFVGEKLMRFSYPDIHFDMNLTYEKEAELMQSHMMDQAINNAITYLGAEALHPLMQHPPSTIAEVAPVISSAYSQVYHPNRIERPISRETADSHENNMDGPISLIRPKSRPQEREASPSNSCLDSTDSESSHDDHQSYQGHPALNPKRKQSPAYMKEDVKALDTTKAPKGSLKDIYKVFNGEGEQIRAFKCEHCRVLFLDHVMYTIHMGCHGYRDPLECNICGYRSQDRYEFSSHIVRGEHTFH
T4 sequence (Q96SW2 whole entry): as the sequence (Q96SW2 whole entry) above
T4 sequence (Q16531 whole entry partner): as the sequence (Q16531 whole entry partner) above
Experimental: Cells were lysed in M-PER® buffer (Thermo Scientific) containing protease/phosphatase inhibitor cocktail (Roche). Protein concentration was measured using a BCA assay (Pierce™). Equivalent amounts of each sample were loaded on 4-12% Bis-Tris gels (Invitrogen™), transferred to nitrocellulose membranes, and immunoblotted with the indicated antibodies. IRDye®800-labeled goat anti-rabbit IgG and IRDye®680-labeled goat anti-mouse IgG (LI-COR®) secondary antibodies were purchased from LI-COR®, and membranes were detected on an Odyssey® detection system (LI-COR® Biosciences).
Immunoblots for Ikaros, Helios, and Actin from wildtype Jurkat cells treated with compound 36 or 65 for 4 hours at the indicated concentrations were generated (FIG. 1).

T1 sequence (Q9UKS7 whole entry): as the sequence (Q9UKS7 whole entry) above
T1 sequence (Q96SW2 whole entry): as the sequence (Q96SW2 whole entry) above
T1 sequence (Q16531 whole entry partner): as the sequence (Q16531 whole entry partner) above

Structure (SMILES)	DC50 (IKZF2 [1]; read-out: IKZF2 DC50; Molt4 cells with endogenous HiBit-IKZF2 knock-in, 6 hours, Nano-Glo HiBit luminescence) [nM]	DC50 (IKZF1 [2]; read-out: IKZF1 DC50; Molt4 cells with endogenous HiBit-IKZF1 knock-in, 6 hours, Nano-Glo HiBit luminescence) [nM]	DC50 (IKZF2 [3]) [nM]	DC50 (IKZF1 [4]; read-out: GFP IKZF1 DC50; Flip-In 293 cells stably expressing IKZF1 GFP fusion with mCherry reporter, 5 h) [nM]	Helios degradation (immunoblot, FIG. 1) (Helios)	DC50 (IKZF2 [1]; Molt4 cells with endogenous HiBit-IKZF2 knock-in, 6 hours, Nano-Glo HiBit luminescence; read-out: IKZF2 DC50) [nM]	DC50 (IKZF1 [2]; Molt4 cells with endogenous HiBit-IKZF1 knock-in, 6 hours, Nano-Glo HiBit luminescence; read-out: IKZF1 DC50) [nM]	DC50 (IKZF1 [4]; Flip-In 293 cells stably expressing IKZF1 GFP fusion with mCherry reporter, 5 h; read-out: GFP IKZF1 DC50) [nM]
CC(C)(NCCc1cccc(C(F)(F)F)c1)c1cccc(NC2=CC(=O)N(C3CCC(=O)NC3=O)C2=O)c1 (stereo not shown) [Compound 65, 3-(2,5-dioxo-3-((3-(2-((3-(trifluoromethyl)phenethyl)amino)propan-2-yl)phenyl)amino)-2,5-dihydro-1H-pyrrol-1-yl)piperidine-2,6-dione]	17	18	3.6	5.1	Helios degradation			
CN(C)C(CC(=O)Nc1cccc(C(F)(F)F)c1)c1cccc(NC2=CC(=O)N(C3CCC(=O)NC3=O)C2=O)c1 (stereo not shown) [Compound 36, 3-(dimethylamino)-3-(3-((1-(2,6-dioxopiperidin-3-yl)-2,5-dioxo-2,5-dihydro-1H-pyrrol-3-yl)amino)phenyl)-N-(3-(trifluoromethyl)phenyl)propanamide]			2.3		Helios degradation	2.5	15	5.4
